Results as given in article PMC12441834, “Highly Potent and Subtype-Selective Sperm-Specific Potassium Channel SLO3 Inhibitors Display High Tissue Exposure in the Murine Female Reproductive Tract” (ACS Pharmacology & Translational Science, 2025).
pIC50: −log10 of the molar value. Several values for one entry are separate records, joined by “and”; a condition that tells them apart may be missing. Equal values may be shown once. Read-outs that look alike come from different tables or passages of the source.

How the values were obtained:
[1] = target: Adrenergic α2A (Homo sapiens, UniProt P08913); experiment: LeadProfilingScreen radioligand binding
[2] = target: Histamine H1 (Homo sapiens, UniProt P35367); experiment: LeadProfilingScreen radioligand binding
[3] = target: Muscarinic M2 (Homo sapiens, UniProt P08172); experiment: LeadProfilingScreen radioligand binding
[4] = target: Bradykinin B1 (Homo sapiens, UniProt P46663); experiment: LeadProfilingScreen radioligand binding
[5] = target: Serotonin (5-Hydroxytryptamine) 5-HT2B (Homo sapiens, UniProt P41595); experiment: LeadProfilingScreen radioligand binding
[6] = target: Opiate κ (OP2, KOP) (Homo sapiens, UniProt P41145); experiment: LeadProfilingScreen radioligand binding
[7] = target: Nicotinic Acetylcholine α3β4 (Homo sapiens, UniProt P30926+P32297); experiment: LeadProfilingScreen radioligand binding
[8] = target: Adrenergic β1 (Homo sapiens, UniProt P08588); experiment: LeadProfilingScreen radioligand binding
[9] = target: Adenosine A2A (Homo sapiens, UniProt P29274); experiment: LeadProfilingScreen radioligand binding
[10] = target: CYP3A4 (Homo sapiens, UniProt P08684); experiment: CYP450 inhibition; format: in vitro ADME; details: read-out: CYP450 Inhibition, 3A4
[11] = target: Adrenergic α1D (Homo sapiens, UniProt P25100); experiment: LeadProfilingScreen radioligand binding
[12] = target: Serotonin (5-Hydroxytryptamine) 5-HT1A (Homo sapiens, UniProt P08908); experiment: LeadProfilingScreen radioligand binding
[13] = target: Adrenergic β2 (Homo sapiens, UniProt P07550); experiment: LeadProfilingScreen radioligand binding
[14] = target: Platelet Activating Factor (PAF) (Homo sapiens, UniProt P25105); experiment: LeadProfilingScreen radioligand binding
[15] = target: Histamine H3 (Homo sapiens, UniProt Q9Y5N1); experiment: LeadProfilingScreen radioligand binding
[16] = tested on: Rolipram; experiment: LeadProfilingScreen radioligand binding; parameters: species or system rat
[17] = Distribution ratio female reproductive organs versus plasma after IV dosing; format: in vivo; details: C57Bl/6, mouse, female mice, 1 mg/kg IV; for Kp at 0.25 h: reproductive organs / plasma
Experimental: Samples were analyzed via electrospray ionization (ESI) LC-MS/MS on an AB Sciex 4500 (Foster City, CA) triple-quadrupole instrument that was coupled with an Agilent 1290 Infinity Binary Pump and multisampler (Santa Clara, CA) and concentrations (ng/mL or ng/g) were determined using a matrix-matched 10-point standard curve and then converted to nM concentrations. Quantitation of compounds was performed via AB Sciex Multiquant software using the raw analyte:IS peak area ratios. The typical detection range was 0.5 ng/mL to ≥5000 ng/mL utilizing a quadratic equation regression with 1/x² weighting. Correction for dilution of all tissue samples was performed postquantitation. The corrections for dilution in the extraction buffer employed correction factors specific to each tissue weight.
In-life phase–Compounds were formulated in PEG400:DMSO (4:1, v/v) at a concentration of 1 mg/mL and administered as a single 1 mg/kg dose (1 mL/kg) to female C57Bl/6 mice (n = 2–4; 30 g body weight) via intravenous (i.v.) injection. Blood samples were collected serially from a surgically implanted carotid artery catheter in each animal over multiple postadministration time points (0.25, 0.5, 1, 3, 6, and 24 h) into chilled, K2EDTA anticoagulant-fortified tubes and immediately placed on wet ice. The blood samples were stored at −80 °C until analysis by LC-MS/MS.
At the same time points, female reproductive organs were obtained by rapid dissection, rinsed with PBS, pooled by lots of 2 and immediately frozen in individual tissue collection boxes (dry ice). All tissues and blood samples were stored at −80 °C until analysis by LC-MS/MS.

[18] = target: Serotonin (5-Hydroxytryptamine) 5-HT3 (Homo sapiens, UniProt P46098); experiment: LeadProfilingScreen radioligand binding
[19] = target: Androgen (Testosterone) (Homo sapiens, UniProt P10275); experiment: LeadProfilingScreen radioligand binding
[20] = tested on: Purinergic P2X; experiment: LeadProfilingScreen radioligand binding; parameters: species or system rat
[21] = target: Interleukin IL-1 R1 (Homo sapiens, UniProt P14778); experiment: LeadProfilingScreen radioligand binding
[22] = tested on: Calcium Channel L-Type, Dihydropyridine; experiment: LeadProfilingScreen radioligand binding; parameters: species or system rat
[23] = tested on: Glutamate, NMDA, Agonism; experiment: LeadProfilingScreen radioligand binding; parameters: species or system rat
[24] = Multispecies hepatocyte MetID; format: in vitro ADME, cynomolgus monkey; details: 4 h incubation with hepatocytes, 10 μM
Experimental: Metabolites were identified after preincubating each compound at a 10 μM final concentration with 2.5 × 10^5 hepatocytes from human, dog, cynomolgus monkey, and rat in 200 μL of Optiincubate buffer (BioIVT, Westbury, NY). […] After centrifugation, 60 μL of the supernatant was transferred to 60 μL of water for LC-MS analysis. Samples were analyzed using a Thermo Scientific Vanquish UHPLC consisting of a VH-P10-A pump, a VH-A10-A sampler module, a VH-C10-A column compartment, and the VF-D11-A UV detector coupled to an Orbitrap Fusion Lumos instrument with UVPD. A binary solvent system consisting of (A) water with 0.1% formic acid and (B) acetonitrile with 0.1% formic acid was used with an Accucore Vanquish C18+, 2.1 mm × 100 mm, 1.5 μm, UHPLC column maintained at 40 °C. The data generated by data-dependent acquisition via normal acquisition and AcquireX were processed manually with Thermo Scientific FreeStyle and assisted by Compound Discoverer 3.3.1.111 to aid in the structural assignments.

[25] = tested on: Purinergic P2Y, Non-Selective; experiment: LeadProfilingScreen radioligand binding; parameters: species or system rat
[26] = target: Dopamine D3 (Homo sapiens, UniProt P35462); experiment: LeadProfilingScreen radioligand binding
[27] = target: Tachykinin NK1 (Homo sapiens, UniProt P25103); experiment: LeadProfilingScreen radioligand binding
[28] = target: Adrenergic α1A (Homo sapiens, UniProt P35348); experiment: LeadProfilingScreen radioligand binding
[29] = female reproductive organs (pooled), pooled organs, read-out: Reproductive Organs concentration
[30] = plasma, read-out: Plasma concentration

Chain of Nicotinic Acetylcholine α3β4 (P32297 32-505): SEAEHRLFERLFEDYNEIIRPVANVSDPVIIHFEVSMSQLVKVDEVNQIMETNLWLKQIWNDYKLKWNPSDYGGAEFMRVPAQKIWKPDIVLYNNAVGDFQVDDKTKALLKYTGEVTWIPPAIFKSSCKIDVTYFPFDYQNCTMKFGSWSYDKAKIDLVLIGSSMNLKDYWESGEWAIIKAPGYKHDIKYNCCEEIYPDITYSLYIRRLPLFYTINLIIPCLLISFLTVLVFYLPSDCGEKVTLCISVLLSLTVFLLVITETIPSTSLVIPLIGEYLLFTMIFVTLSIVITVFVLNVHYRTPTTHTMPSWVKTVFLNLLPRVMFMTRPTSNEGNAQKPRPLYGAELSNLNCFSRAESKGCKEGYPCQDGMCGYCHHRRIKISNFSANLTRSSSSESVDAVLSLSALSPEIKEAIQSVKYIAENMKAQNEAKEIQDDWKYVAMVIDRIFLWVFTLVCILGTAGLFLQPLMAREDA
Chain of Nicotinic Acetylcholine α3β4 (P30926 22-498): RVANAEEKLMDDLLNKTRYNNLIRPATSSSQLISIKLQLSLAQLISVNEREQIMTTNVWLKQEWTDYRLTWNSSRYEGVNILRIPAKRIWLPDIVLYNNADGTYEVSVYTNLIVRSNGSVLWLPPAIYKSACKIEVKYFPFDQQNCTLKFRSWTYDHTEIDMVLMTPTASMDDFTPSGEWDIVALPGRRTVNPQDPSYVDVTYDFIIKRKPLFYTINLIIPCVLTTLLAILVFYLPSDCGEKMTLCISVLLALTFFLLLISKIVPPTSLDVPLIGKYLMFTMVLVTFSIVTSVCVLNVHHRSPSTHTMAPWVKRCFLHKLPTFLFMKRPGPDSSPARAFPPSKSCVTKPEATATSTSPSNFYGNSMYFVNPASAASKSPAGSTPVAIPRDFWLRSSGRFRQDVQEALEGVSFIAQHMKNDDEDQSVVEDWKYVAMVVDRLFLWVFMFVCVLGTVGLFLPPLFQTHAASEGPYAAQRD
Chain of Dopamine D3 (P35462 whole entry): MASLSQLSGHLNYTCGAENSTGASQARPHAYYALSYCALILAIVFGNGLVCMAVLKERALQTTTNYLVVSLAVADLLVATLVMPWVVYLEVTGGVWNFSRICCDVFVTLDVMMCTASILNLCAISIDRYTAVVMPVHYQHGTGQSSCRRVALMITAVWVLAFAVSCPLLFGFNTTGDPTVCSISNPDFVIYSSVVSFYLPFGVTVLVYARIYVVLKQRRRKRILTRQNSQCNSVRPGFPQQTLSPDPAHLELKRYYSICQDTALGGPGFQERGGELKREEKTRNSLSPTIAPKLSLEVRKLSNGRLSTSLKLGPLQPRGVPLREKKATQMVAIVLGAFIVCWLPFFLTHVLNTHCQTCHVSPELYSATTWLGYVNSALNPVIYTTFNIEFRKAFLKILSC
Chain of Opiate κ (OP2, KOP) (P41145 whole entry): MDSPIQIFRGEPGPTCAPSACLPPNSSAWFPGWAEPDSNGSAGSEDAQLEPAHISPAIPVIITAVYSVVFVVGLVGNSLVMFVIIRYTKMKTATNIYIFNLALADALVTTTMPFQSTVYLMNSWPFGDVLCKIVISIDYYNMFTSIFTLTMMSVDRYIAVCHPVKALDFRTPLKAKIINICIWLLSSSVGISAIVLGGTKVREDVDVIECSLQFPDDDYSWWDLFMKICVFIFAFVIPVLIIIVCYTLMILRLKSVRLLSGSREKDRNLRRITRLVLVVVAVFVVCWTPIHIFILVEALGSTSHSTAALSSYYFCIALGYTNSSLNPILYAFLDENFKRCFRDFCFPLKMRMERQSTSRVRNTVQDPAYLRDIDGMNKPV
Chain of Histamine H1 (P35367 whole entry): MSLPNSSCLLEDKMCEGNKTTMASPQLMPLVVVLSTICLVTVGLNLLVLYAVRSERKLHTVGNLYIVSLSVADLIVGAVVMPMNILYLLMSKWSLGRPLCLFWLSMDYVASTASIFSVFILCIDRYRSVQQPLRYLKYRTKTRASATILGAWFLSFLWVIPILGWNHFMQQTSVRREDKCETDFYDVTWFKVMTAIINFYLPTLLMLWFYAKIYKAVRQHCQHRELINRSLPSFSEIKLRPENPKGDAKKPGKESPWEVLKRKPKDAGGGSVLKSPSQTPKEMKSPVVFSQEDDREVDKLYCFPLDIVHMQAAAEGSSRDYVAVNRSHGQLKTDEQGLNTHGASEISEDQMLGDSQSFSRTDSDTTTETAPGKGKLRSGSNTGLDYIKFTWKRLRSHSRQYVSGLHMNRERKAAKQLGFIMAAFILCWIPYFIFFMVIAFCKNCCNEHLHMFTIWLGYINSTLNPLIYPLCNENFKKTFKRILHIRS
Chain of Androgen (Testosterone) (P10275 whole entry): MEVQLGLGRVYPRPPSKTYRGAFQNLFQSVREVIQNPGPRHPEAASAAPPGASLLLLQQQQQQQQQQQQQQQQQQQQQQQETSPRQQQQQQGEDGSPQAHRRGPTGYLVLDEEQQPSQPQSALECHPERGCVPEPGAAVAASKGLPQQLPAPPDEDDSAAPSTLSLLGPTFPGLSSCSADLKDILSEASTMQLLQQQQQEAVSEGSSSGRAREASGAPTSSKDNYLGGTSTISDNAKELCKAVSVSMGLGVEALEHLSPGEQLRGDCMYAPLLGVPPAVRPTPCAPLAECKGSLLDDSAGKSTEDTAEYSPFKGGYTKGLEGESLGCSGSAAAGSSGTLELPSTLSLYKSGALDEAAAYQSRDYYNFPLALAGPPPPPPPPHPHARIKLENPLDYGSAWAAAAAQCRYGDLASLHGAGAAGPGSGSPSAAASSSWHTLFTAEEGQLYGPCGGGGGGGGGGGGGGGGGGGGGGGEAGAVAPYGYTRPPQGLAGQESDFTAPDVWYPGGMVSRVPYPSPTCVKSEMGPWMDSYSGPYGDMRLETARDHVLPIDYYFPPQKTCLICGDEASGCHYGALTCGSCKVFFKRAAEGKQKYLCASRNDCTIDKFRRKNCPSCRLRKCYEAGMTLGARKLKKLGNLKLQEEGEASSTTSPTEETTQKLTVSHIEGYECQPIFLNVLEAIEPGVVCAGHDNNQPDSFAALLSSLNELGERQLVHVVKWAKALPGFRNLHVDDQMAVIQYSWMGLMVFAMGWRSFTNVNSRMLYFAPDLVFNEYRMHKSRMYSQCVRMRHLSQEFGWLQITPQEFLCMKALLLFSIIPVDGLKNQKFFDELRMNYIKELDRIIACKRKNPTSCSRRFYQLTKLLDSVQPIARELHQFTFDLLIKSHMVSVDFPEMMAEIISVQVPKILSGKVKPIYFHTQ
Chain of Adrenergic α1D (P25100 whole entry): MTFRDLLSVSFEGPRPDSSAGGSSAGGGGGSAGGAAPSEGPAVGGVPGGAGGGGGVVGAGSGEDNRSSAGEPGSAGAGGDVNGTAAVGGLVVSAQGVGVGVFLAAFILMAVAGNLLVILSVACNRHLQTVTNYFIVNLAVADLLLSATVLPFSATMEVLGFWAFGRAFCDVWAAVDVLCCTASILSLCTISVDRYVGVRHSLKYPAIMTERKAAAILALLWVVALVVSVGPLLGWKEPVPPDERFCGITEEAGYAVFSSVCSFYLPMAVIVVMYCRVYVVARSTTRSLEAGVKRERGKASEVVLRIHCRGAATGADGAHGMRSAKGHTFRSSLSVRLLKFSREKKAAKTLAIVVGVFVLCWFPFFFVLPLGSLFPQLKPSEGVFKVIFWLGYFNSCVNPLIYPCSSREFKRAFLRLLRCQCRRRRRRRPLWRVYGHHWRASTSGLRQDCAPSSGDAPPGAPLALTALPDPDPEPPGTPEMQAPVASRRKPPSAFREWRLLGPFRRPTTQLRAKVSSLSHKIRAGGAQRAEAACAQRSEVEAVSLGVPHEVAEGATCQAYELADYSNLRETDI
Chain of Adrenergic β2 (P07550 whole entry): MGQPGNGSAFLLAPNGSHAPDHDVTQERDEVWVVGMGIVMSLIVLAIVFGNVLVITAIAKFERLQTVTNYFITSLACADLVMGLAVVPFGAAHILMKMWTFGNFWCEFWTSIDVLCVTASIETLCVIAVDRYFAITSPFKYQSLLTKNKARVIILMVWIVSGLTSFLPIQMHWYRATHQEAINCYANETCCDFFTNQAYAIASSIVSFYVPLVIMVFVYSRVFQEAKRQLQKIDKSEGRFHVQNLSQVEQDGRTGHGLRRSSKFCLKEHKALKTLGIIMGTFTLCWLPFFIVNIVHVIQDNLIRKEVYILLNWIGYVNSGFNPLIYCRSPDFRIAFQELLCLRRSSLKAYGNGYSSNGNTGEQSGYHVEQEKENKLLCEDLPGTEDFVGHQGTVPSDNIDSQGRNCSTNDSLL
Chain of Adrenergic β1 (P08588 whole entry): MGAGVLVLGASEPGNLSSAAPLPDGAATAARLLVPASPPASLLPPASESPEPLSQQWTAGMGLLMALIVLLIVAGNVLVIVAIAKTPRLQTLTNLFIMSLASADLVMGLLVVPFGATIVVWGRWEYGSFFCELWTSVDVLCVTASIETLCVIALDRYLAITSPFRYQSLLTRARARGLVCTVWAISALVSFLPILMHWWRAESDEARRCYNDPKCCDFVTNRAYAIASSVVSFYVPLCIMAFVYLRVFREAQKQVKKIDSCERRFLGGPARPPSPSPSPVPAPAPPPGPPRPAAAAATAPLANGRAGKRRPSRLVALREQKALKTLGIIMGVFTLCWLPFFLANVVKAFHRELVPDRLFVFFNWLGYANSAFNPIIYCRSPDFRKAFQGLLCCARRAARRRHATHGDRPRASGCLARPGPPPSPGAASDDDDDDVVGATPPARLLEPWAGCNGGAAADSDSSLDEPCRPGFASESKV
Chain of Platelet Activating Factor (PAF) (P25105 whole entry): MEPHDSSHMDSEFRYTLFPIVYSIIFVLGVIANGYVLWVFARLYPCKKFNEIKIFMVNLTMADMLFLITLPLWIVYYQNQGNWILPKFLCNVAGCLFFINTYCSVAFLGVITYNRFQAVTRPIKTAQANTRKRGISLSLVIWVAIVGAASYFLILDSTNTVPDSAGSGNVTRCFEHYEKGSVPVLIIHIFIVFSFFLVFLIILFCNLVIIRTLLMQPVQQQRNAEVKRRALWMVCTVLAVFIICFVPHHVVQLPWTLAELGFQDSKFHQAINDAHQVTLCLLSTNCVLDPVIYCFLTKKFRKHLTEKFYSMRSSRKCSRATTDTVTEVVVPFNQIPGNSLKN

Cc1cc(Cl)cc2sc(O[C@H]3CCN(C(=O)CCCS(=O)(=O)c4cccc(Br)c4)C[C@H]3F)nc12 [VU6047606]
inhibition at 10 µM [1]: -4% | inhibition at 10 µM [2]: 11% | inhibition at 10 µM [3]: -6% | inhibition at 10 µM [4]: -5% | inhibition at 10 µM [5]: 18% | inhibition at 10 µM [6]: -13% | inhibition at 10 µM [7]: -7% | inhibition at 10 µM [8]: 11% | inhibition at 10 µM [9]: 0% | pIC50 [10]: < 4.52 | inhibition at 10 µM [11]: 13% | inhibition at 10 µM [12]: -2% | inhibition at 10 µM [13]: 5% | inhibition at 10 µM [14]: 8% | inhibition at 10 µM [15]: 11% | % inhibition at 10 μM [16]: 19% | concentration at 0.25 h [17, 29]: 56.6 ng/mL | concentration at 0.25 h [17, 30]: 121 ng/mL | Kp at 0.25 h [17]: 0.47 | inhibition at 10 µM [18]: -17% | inhibition at 10 µM [19]: 8% | % inhibition at 10 μM [20]: 1% | inhibition at 10 µM [21]: 1% | % inhibition at 10 μM [22]: 93% | % inhibition at 10 μM [23]: -18% | % of Parent Related Material, Cyno [24]: 82.77% and > 82% | % inhibition at 10 μM [25]: 7% | inhibition at 10 µM [26]: 19% | inhibition at 10 µM [27]: 8% | inhibition at 10 µM [28]: 4%

O=C(c1ccc(OCc2ccc(OC(F)(F)F)cc2)cc1)N1CCN(c2ccc(C(F)(F)F)cn2)CC1 [VU6032735]
inhibition at 10 µM [1]: -3% | inhibition at 10 µM [2]: 14% | inhibition at 10 µM [3]: -10% | inhibition at 10 µM [4]: 4% | inhibition at 10 µM [5]: -6% | inhibition at 10 µM [6]: -16% | inhibition at 10 µM [7]: -6% | inhibition at 10 µM [8]: 8% | inhibition at 10 µM [9]: -6% | pIC50 [10]: < 4.52 | inhibition at 10 µM [11]: 2% | inhibition at 10 µM [12]: -1% | inhibition at 10 µM [13]: 5% | inhibition at 10 µM [14]: -2% | inhibition at 10 µM [15]: -16% | % inhibition at 10 μM [16]: 7% | concentration at 0.25 h [17, 29]: 1070 ng/mL | concentration at 0.25 h [17, 30]: 85.3 ng/mL | Kp at 0.25 h [17]: 12.7 | inhibition at 10 µM [18]: -11% | inhibition at 10 µM [19]: 1% | % inhibition at 10 μM [20]: 1% | inhibition at 10 µM [21]: -7% | % inhibition at 10 μM [22]: 76% | % inhibition at 10 μM [23]: -8% | % of Parent Related Material, Cyno [24]: > 98% | % inhibition at 10 μM [25]: 24% | inhibition at 10 µM [26]: 3% | inhibition at 10 µM [27]: 7% | inhibition at 10 µM [28]: -1%
